Experimental data taken from patent publication US6355785B1, “Guanosine-rich oligonucleotide integrase inhibitors” (Aronex Pharmaceuticals, Inc., priority 1993, dated 2002).
Read-outs that look alike come from different tables or passages of the source.

Tests used:
[1] = system: HIV-1 laboratory isolates; assay: HIV-1 infection of PBMCs (p24); format: cell-based; conditions: read-out: IC50 viral production
HIV-1IIIB = assay: Time of drug addition study, MT-4 cells (p24); format: cell-based; conditions: 100-fold IC50, MOI 1, p24 at 29 hour
[2] = parameters: species or system cynomolgus monkeys; conditions: cynomolgus monkey, in vivo
Experimental: Dosing. Twelve experimentally naive cynomolgus monkeys were assigned to four groups of three animals each. Prior to dosing, each animal was lightly sedated with a combination of ketamine (1 0 mg/kg) and diazepam (0.5 mg/kg), and a catheter was introduced into the femoral artery for recording central arterial pressure. Monkeys were given a single intravenous infusion of 5, 20, or 50 mg AR177/kg or saline over ten minutes through a cephalic vein catheter using a Harvard infusion pump. Arterial blood samples were drawn at −10, +10, +20, +40, +60 and +120 minutes relative to the initiation of infusion into EDTA-containing tubes for hematology, complement factors, coagulation assay, serum chemistry, and plasma AR177 determination. At 24 hours post-infusion, blood was drawn via the femoral vein into EDTA-containing tubes for these same parameters. The concentration of AR177 in dosing solutions was confirmed post experiment by absorbance at 280 nm on a spectrophotometer. For the determination of AR177 by HPLC, the plasma fraction was obtained by low speed centrifugation of blood, and stored at −20° C. until used. Electrocardiograms (ECGs), central pressure, and heart rate were recorded continuously for 120 minutes following the initiation of doing. Table E-1 summarizes the study design. The animals were observed twice daily pharmacotoxic signs and general health beginning two days before dosing and for seven days following dosing. The monkeys were not necropsied at the end of the study.
Hematology and coagulation parameters. The following are determined: red blood cell count and morphology, total and differential white blood cells, hemoglobin, hematocrit, prothrombin time, fibrinogen, mean cell hemoglobin, mean corpuscular volume, mean corpuscular hemoglobin concentration, platelet count, and activated partial thromboplastin time. Hematology parameters were determined at Sierra Nevada Laboratories (Reno, Nev.).

Question: With “5′-gtggtgggtgggtgggt-3′ (GTGGTGGGTGGGTGGGT; phosphorothioate termini, further chemistry not given here) [T30177, pPT version of parent compound I100-15, 17 mer]” as the substance, how does the IC50 ([1]; HIV-1 IIIB) read?
Answer: 120 nM

Question: And the IC50 ([1]; HIV-1 JRCSF)?
Answer: 280 ± 40 nM

Question: And the IC50 ([1]; HIV-1 MN)?
Answer: 1350 ± 100 nM

Question: What about the IC50 ([1]; HIV-1 RF) of the same substance?
Answer: 750 ± 130 nM

Question: What about the “delay of drug addition post-infection at which inhibitory effect is lost” value (HIV-1IIIB) of the same substance?
Answer: one hour

Question: And the “anticoagulant potency, less potent than thrombin-binding aptamer oligonucleotide” value [2]?
Answer: 40 fold

Question: What about the hematology values [2] of the same substance?
Answer: no changes in hematology values attributable to AR177
